Source: patent US20040242974A1, “Treatment of refractory depression with an opiate antagonist and an antidepressant” (priority 2001, published 2004)
Several values for one entry are separate records, joined by “and”; a condition that tells them apart may be missing. Equal values may be shown once.

Experiments:
depression = experiment: Clinical observation / patient report of response to medication (case reports); format: in vivo, human; conditions: A person; for Response to antidepressants in the past: earlier episodes of unipolar depression, recurrent type
Description: Both antidepressants were stopped and they were then administered desipramine (a tricyclic antidepressant) up to 150 mg./day for 4 weeks. […] Desipramine was discontinued and a person was started on a course of electric shock treatment (ECT) on an outpatient basis. They received a total number of 8 treatments, administered 2 times per week.
(§1) Mrs. […] Lithium carbonate 300 mg. b.i.d. was added to the Prozac for one week, and afterward Prozac was increased over the next 4 weeks to 60 mg./day. […] In succession, they were tried on amitriptyline up to 300 mg./day with monitoring of medication blood levels, and venlafaxine up to 375 mg./day.

[1] = A person; lithium carbonate 300 mg b.i.d.
Description: as §1

[2] = system: refractory depression characterized by dissociation; experiment: Beck Depression Inventory (BDI) questionnaire measuring depression in the treated patient; format: in vivo, human
Excerpt: Although any known test for measuring depression may be used as an indicator or measure of depression, the Beck Depression Inventory (“BDI”) is a preferred test for the present invention. The Beck Depression Inventory is a questionnaire developed by Aaron T. Beck, M.D. in 1978 to measure the presence and severity of depression. This test provides an exemplary method of measuring depression over the course of treatment according to the present invention. This test can also be used for reassessing a patient during treatment. The reassessment may be used to determine choice and dosage of antidepressant. The second edition of the Beck Depression Inventory is a 21-item questionnaire with each item rated on a four-point Likert scale (0-3) with total scores ranging from 0 to 63. A higher score indicates a more severe level of depression. Generally, a total score below 10 indicates no depression; a score from 10-16 indicates mild depression; 17-29 indicates moderate depression; and 30-63 indicates severe depression. According to the present invention, a score of about 10 or above would indicate diagnosis and treatment according to the present invention, with the patient more preferably presenting a BDI score of about 17 or above. A BDI score of less than about 10 is clinically non-significant. Eleven items of the BDI specifically identify how a depressed person thinks and feels about himself or herself. […] In paraphrased form they are: feeling disappointment in oneself; critical of oneself; suicidal thoughts; sadness; discouraged about the future; feelings of being punished; guilty; feeling like a failure; feeling a lack of satisfaction; feeling old/unattractive/ugly; and loss of interest in people. See S. Ramirez, supra.

[3] = system: refractory depression characterized by dissociation; experiment: Glover Numbing Scale (GNS) self-report questionnaire measuring numbness/dissociation in the treated patient; format: in vivo, human
Excerpt: The Glover Numbing Scale was constructed to measure symptoms associated with the numb responses, and provides an adequate measure for determining whether a patient is in a dissociated state. Both males and females with major depression evidenced a bimodal distribution of scores on the GNS with a distance of three standard deviations between their respective means. The GNS has identified a unique subgroup within the population of people diagnosed with major depression who manifest the unique phenomenological experience and associated symptoms of having no feelings. […] By evaluating a patient with the Glover Numbing Scale prior to administration of an opiate antagonist, and reassessing the patient after treatment, one of skill in the art can readily determine if the opiate antagonist is reversing or alleviating dissociation.
In one embodiment, the Glover Numbing Scale is a 35-item self-report questionnaire that systematically measures the frequency of experiences associated with “numbness,” an essential symptom of dissociation. Each item is rated on a seven-point scale by the patient, with scores corresponding to the following responses: 1, never; 2, very rarely; 3, rarely; 4, occasionally; 5, frequently, 6, very frequently; and 7, always. The highest possible score according to the Glover Numbing Scale is 245 (35 items by 7 points per item); a higher score indicates a more persistent degree of numbness and associated symptoms of dissociation. […] See S. Ramirez, supra at 194-95. According to the present invention, a Glover Numbing Scale score greater than about 100 should be considered consistent with the presence of dissociation. […] In another embodiment, a GNS score less than about 60 can be considered clinically non-significant.
That is, according to one embodiment of the present invention, a patient evaluated according to the Beck Depression Inventory to have a total BDI of about 10 or more, would be diagnosed as suffering from depression. According to the present invention, the depressed patient would then be evaluated according to the Glover Numbing Scale to assess the refractory nature of the patient's depression. If the patient scored about 100 or above, and positively to any of the eight salient items on the GNS, the patient is then affirmatively diagnosed as suffering from refractory depression characterized by dissociation according to one embodiment of the present invention. According to the present invention, the diagnosis may be made immediately after evaluating the patient according to the Glover Numbing Scale in conjunction with the Beck Depression Inventory in the context of an initial diagnostic assessment. The 35 items of the Glover Numbing Scale (GNS) describe the breadth of problems that can be associated with dissociation. Eight of the 35 items, however, uniquely discriminate dissociative experiences from symptoms of depression at a very high degree of probability. It is recommended that these eight items be scored separately at the time of the initial evaluation, and be used to monitor the patient's response to treatment at regular intervals until the patient is in full remission or has achieved the maximum beneficial response to medication.
At the time of remission the patient's responses to all of the other […] items on the GNS can be individually assessed by the clinician to ascertain if any residual symptoms are present which may require further attention. […]

patient = experiment: Side effects reported by the patient during treatment; format: in vivo, human; conditions: A person; nalmefene 50 to 150 mg b.i.d.
Description: They were reassessed with the BDI and the GNS. One week later a person was able to identify their mood as sad and lonely. […] Their BDI was now scored at 20 and their GNS score fell to 70.
It was decided to maintain the patient on amitriptyline while introducing nalmefene 50 mg. b.i.d. Four days later the dose of nalmefene was doubled. A person was monitored for side effects and changes of mood, using the eight salient items of the GNS and the eleven salient items of the BDI as guides. Mrs. […] During each visit the dose was […] 50 mg. to a final dose of 200 mg./day. Mrs.

[4] = lithium carbonate 300 mg b.i.d. added to Prozac, Prozac increased to 60 mg/day over 4 weeks
[5] = A person, SAM-e 400 mg in divided doses, 800 mg five days later, started after the nalmefene course, one week afterward

## CC(NC(C)(C)C)C(=O)c1cccc(Cl)c1 (stereo not drawn) [Bupropion]
depression; Bupropion (sustain released) up to 300 mg/day added to paxil, other than some improvement in level of energy
  Clinical response: little benefit

## O=C([O-])[O-].[Li+].[Li+] [Lithium carbonate]
[1]
  Serum lithium levels: 0.6 and 0.7
depression; [4]
  Clinical response: lack of response

## Fc1ccc([C@@H]2CCNC[C@H]2COc2ccc3c(c2)OCO3)cc1 [Paxil]
depression; Paxil up to 60 mg/day, unsuccessfully administered
  Clinical response: mild to moderate calming effect
depression
  Response to antidepressants in the past: good responses

## CNCCC(Oc1ccc(C(F)(F)F)cc1)c1ccccc1 (stereo not drawn) [Prozac]
depression; initial treatment with Prozac, otherwise unchanged
  Clinical response: reducing irritability
depression; [4]
  Clinical response: lack of response

## C[S+](CC[C@H](N)C(=O)[O-])C[C@H]1O[C@@H](n2cnc3c(N)ncnc32)[C@H](O)[C@@H]1O (stereo partly drawn) [SAM-e]
[2]; [5]
  BDI score: 6
[3]; [5]
  GNS score: 40
depression; SAM-e 400 then 800 mg, started after the nalmefene course, one week afterward
  Clinical response (mood and energy): marked improvement in mood and energy level

## CN(C)CCC=C1c2ccccc2CCc2ccccc21 [amitriptyline]
depression; amitriptyline maintained while nalmefene introduced (50 mg b.i.d., doubled after four days)
  Clinical response (antidepressant effect): began to feel the antidepressant effect for the first time
depression; amitriptyline up to 300 mg/day, calming effect with some reduction of sadness and emptiness
  Clinical response: improved their level of energy

## CNCCCN1c2ccccc2CCc2ccccc21 [desipramine]
depression; desipramine up to 150 mg/day for 4 weeks, remained essentially depressed
  Clinical response: some decrease of crying spells
depression
  Response to antidepressants in the past: good responses

## C=C1CC[C@@]2(O)[C@H]3Cc4ccc(O)c5c4[C@@]2(CCN3CC2CC2)[C@H]1O5 [nalmefene]
[2]; A person (Example 1), nalmefene 50 mg b.i.d. 3 days, 100 mg b.i.d. 4 days, then 150 mg b.i.d., one week later, score before treatment 23
  BDI score: 20
[2]; A person (Example 2), one week after nalmefene 200 mg b.i.d. reached, maintained on amitriptyline (final 200 mg/day), score before 24
  BDI score: 5
patient
  Side effects of drowsiness and tiredness: mild and transient
[3]; A person (Example 1), nalmefene 50 mg b.i.d. 3 days, 100 mg b.i.d. 4 days, then 150 mg b.i.d., one week later, score before treatment 142
  GNS score: 70
[3]; A person (Example 2), one week after nalmefene 200 mg b.i.d. reached, maintained on amitriptyline (final 200 mg/day), score before 148
  GNS score: 38
[3]; A person, nalmefene 200 mg b.i.d. with amitriptyline
  Salient items of the GNS: not to have been experienced
[3]; A person, nalmefene up to 150 mg b.i.d., during the past week
  Salient items of the GNS: not have been experienced
depression; nalmefene up to 150 mg b.i.d., one week later
  Clinical response (feelings): no longer experienced any lack of feelings
depression; one week after nalmefene 200 mg b.i.d. reached, with amitriptyline
  Clinical response (patient report): felt their usual self once again

## COc1ccc(C(CN(C)C)C2(O)CCCCC2)cc1 (stereo not drawn) [venlafaxine]
depression; venlafaxine up to 375 mg/day, calming effect with some reduction of sadness and emptiness
  Clinical response: improved their level of energy
